Measurements: US20220226321A1, “INHIBITOR OF MNK FOR THE TREATMENT OF NEUROPATHIC PAIN” (Board of Regents, The University of Texas System, priority 2019, published 2022)
Entries after “also recorded” stand apart in the source; their conditions may differ.

What was measured:
[1] = tested on: mice; assay: open field; format: in vivo, mouse; settings: 10 mg/kg i.p., 1 hour; vehicle had the same effect
Protocol: Open field. […] Movement in the maze was video recorded for 10 minutes via ceiling-mounted cameras and tracked using a custom script in MATLAB-2015b. The script outputs total distance traveled and path tracking.

[2] = tested on: eIF4E phosphorylation; assay: Western blot of eIF4E phosphorylation in mPFC, DRG and sciatic nerve; format: in vivo, mouse
Protocol: Western blotting. […] The mPFC and DRGs were rapidly microdissected under a dissecting microscope and then flash frozen on dry ice. The mPFC was similarly collected from a separate group of WT male and female sham and SNI mice at 21 days post injury (the same time point as all rule-shifting experiments). Frozen tissues were homogenized with a pestle in lysis buffer (50 mM Tris, pH 7.4, 150 mM NaCl, 1 mM EDTA, pH 8.0, and 1% Triton X-100) containing protease and phosphatase inhibitors (Sigma-Aldrich), and then sonicated briefly. Samples were centrifuged at 14,000 rpm for 15 min at 4° C. 10 μg of protein was loaded into each well and separated by a 10%-12% SDS-PAGE gel. Proteins were transferred to a 0.45 μm PVDF membrane (Millipore) at 30 V overnight at 4° C. The next day, membranes were blocked with 5% non-fat dry milk (NFDM) in 1× Tris buffer solution containing Tween 20 (TTBS) for 1 h. Membranes were washed in 1×TTBS 3 times for 5 min each, then incubated with primary antibody overnight at 4° C. The primary antibodies used were: phospho-eIF4E (abcam ab76256; 1:1000), GAPDH (Cell Signaling Technology 2118S; 1:10000), total eIF4E (Cell Signaling Technology 9742S; 1:1000). […] Signals were detected using Immobilon Western Chemiluminescent HRP substrate (Millipore). […]

[3] = tested on: DRG; assay: measurement of protein synthesis by puromycin incorporation in DRG; format: in vivo, mouse; settings: single dose 10 mg/kg
Protocol: Measurement of Protein Synthesis. Eight to 12-week-old wild-type and eiF4E^S209A mice were injected with puromycin (10 mg/kg via the intraperitoneal route, i.p.), and 1 hr later, DRGs were collected and processed for Western blotting using anti-puromycin monoclonal antibody (PMY-2A4, KeraFast). […] Protein synthesis was determined by measuring total lane signal from 250-15 KDa and subtracting unlabeled protein control. Signals were quantified using Image Lab (BioRad, Hercules, Calif.).

[4] = tested on: DRG; assay: Western blot (immunoblot) of DRG tissue after paclitaxel or eFT508 in vivo; parameters: species or system mouse; settings: Veh=100
[5] = tested on: DRG neurons; assay: whole-cell patch recording of acutely dissociated DRG neurons; format: cell-based, mouse
Protocol: Acute dissociation of mouse DRG neurons. Thirty mice were deeply anesthetized with isoflurane and the bilateral C4-5, T3-5, and L4-5 ganglia were surgically exposed and removed. The ganglia were placed in a flask containing trypsin (6.25 μg/mL, Hyclone) and type IA collagenase (0.25 mg/mL, Sigma-Aldrich) in DMEM and shaken for 50 min in a heated (37° C.) bath. After the cells were washed and mechanically dispersed with a fire polished Pasteur pipette, they were plated on poly-L-lysine-coated glass sheets and held in culture dishes with DMEM (10% FBS) until use within 6 hours after plating.
Whole-cell patch recording of spontaneous and evoked action potential in acutely dissociated mice DRG neurons. A previously described protocol was used (Li et al., 2017) for current-clamp recording. The internal solution contained 135 mM K-gluconate, 5 mM KCl, 5 mM Mg-ATP, 0.5 mM Na2GTP, 5 mM HEPES, 2 mM MgCl2, 5 mM EGTA, and 0.5 mM CaCl2 adjusted to pH 7.4 with KOH and the bath ACSF solution. DRG neurons were held at 0 pA, and the action potential current threshold was evoked using a series of 300-ms depolarizing current injections in 10-pA steps from −50 pA. The current that induced the first action potential that was defined as 1× rheobase. Only neurons with a resting membrane potential of at least −40 mV, stable baseline recordings, and evoked spikes that overshot 0 mV were used for further experiments and analysis. The DRG neurons were then held at 0 pA to record spontaneous action potential for 5 min. The different times rheobase injections for 500 ms was applied to induce action potential spike-burst responses. Series resistance (Rs) was compensated to above 70% for the recorded DRG neurons. All recordings were made at room temperature.

[6] = DRGs in vivo after eFT508 treatment
[7] = DRG, day 10 after induction of CIPN

## Cc1cc(Nc2cc(N)ncn2)c(=O)n2c1C(=O)NC21CCCCC1 [eFT508, Tomivosertib]
[1]
  movement speed in the open field vs naïve mice: moved significantly slower
[2]; evidenced by western blot of eIF4E phosphorylation after drug-treatment
  crossing of the blood-brain-barrier: crosses the blood-brain-barrier
[2]; naïve mice, 1 hour after 10 mg/kg i.p. or p.o.
  eIF4E phosphorylation in mPFC, DRG and sciatic nerve: rapid and profound decrease; also recorded: significantly decreased
[3]
  general translation (puromycin incorporation in the DRG): not influenced
[4]; [6]
  RagA, immunoblot: 67±6.02
  p4EBP1, immunoblot: 53.12±7.03
  p-eIF4E, immunoblot: 10±2.43
[5]
  spontaneous activity in DRG neurons from paclitaxel treated mice: strongly suppressed; also recorded: decreases spontaneous activity
  toxicity to DRG neurons in vitro: not toxic
[5]; DRG neurons from paclitaxel treated mice
  treatment time needed to reduce spontaneous activity in most neurons: Approximately 20 min

## CC(=O)O[C@H]1C(=O)[C@@]2(C)[C@H]([C@H](OC(=O)c3ccccc3)[C@]3(O)C[C@H](OC(=O)[C@H](O)[C@@H](NC(=O)c4ccccc4)c4ccccc4)C(C)=C1C3(C)C)[C@]1(OC(C)=O)CO[C@@H]1C[C@@H]2O [paclitaxel]
[4]; DRG after CIPN induction
  Esyt1 protein, immunoblot: 230±18.30
[4]; DRG after paclitaxel treatment
  mTOR, immunoblot: 195±25.27
  p-4EBP1, immunoblot: 152±11.27
  p-eIF4E, immunoblot: 158±10.57
  p-mTOR, immunoblot: 131±20.27
[4]; DRG of eIF4E^S209A mice, paclitaxel vs vehicle
  RagA protein level, immunoblot: 75±8.46
[4]; [7]
  S6, immunoblot: 133±24.54
  p-Akt, immunoblot: 96.86±6.63
  p-ERK1/2, immunoblot: 107±14.94
  p-S6, immunoblot: 134±24.47
[4]; DRGs after CIPN
  RagA protein level, immunoblot: 181±15.35
[5]; cervical, thoracic and lumbar DRGs, day 10, paclitaxel 4 mg/kg every other day i.p.
  spontaneous activity and nociceptor excitability: caused spontaneous activity and increased nociceptor excitability
